# The source made the active and inactive calls. The calls are words filed in the database; no cut-off is given here.
# Key:
# [1] = molecular target: T1, 72 kDa type IV collagenase (Homo sapiens, UniProt P08253); experiment: Inhibition of MMP2
# Target sequence in this assay (P08253 whole entry): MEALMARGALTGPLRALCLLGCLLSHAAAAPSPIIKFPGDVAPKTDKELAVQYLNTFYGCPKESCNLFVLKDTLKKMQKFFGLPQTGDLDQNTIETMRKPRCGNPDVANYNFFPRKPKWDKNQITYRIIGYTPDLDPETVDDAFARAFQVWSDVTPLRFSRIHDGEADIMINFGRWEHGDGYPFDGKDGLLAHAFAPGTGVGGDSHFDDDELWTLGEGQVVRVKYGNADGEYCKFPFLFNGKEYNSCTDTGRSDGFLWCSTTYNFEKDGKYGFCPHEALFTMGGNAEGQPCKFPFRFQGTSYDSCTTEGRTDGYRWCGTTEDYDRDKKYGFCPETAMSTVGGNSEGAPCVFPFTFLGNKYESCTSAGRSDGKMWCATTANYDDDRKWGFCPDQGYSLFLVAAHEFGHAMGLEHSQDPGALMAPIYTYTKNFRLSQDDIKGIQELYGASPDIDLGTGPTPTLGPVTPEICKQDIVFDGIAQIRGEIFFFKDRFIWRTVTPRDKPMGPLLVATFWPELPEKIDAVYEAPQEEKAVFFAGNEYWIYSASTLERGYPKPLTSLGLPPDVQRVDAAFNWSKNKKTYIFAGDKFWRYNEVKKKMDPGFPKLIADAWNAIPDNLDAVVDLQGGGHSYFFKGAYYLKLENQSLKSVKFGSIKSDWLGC
# [2] = molecular target: T2, Matrix metalloproteinase-9 (Homo sapiens, UniProt P14780); experiment: Inhibition of MMP9
# [3] = molecular target: T3, Stromelysin-1 (Homo sapiens, UniProt P08254); experiment: Inhibition of MMP3
# Target sequence in this assay (P08254 whole entry): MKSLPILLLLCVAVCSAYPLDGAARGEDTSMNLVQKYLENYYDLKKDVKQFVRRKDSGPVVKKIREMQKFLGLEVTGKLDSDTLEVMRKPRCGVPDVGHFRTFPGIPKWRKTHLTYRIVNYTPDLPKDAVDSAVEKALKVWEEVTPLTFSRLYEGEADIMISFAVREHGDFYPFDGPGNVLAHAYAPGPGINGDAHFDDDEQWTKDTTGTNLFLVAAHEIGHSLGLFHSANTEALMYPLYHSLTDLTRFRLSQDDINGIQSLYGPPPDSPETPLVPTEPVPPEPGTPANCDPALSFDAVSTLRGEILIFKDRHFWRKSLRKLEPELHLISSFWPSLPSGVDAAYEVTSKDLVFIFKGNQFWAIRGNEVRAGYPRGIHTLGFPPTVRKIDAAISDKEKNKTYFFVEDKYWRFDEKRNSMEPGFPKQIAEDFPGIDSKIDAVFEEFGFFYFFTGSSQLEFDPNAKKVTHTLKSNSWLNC
# [4] = molecular target: T4, Interstitial collagenase (Homo sapiens, UniProt P03956); experiment: Inhibition of MMP1
# T4 sequence (P03956 whole entry): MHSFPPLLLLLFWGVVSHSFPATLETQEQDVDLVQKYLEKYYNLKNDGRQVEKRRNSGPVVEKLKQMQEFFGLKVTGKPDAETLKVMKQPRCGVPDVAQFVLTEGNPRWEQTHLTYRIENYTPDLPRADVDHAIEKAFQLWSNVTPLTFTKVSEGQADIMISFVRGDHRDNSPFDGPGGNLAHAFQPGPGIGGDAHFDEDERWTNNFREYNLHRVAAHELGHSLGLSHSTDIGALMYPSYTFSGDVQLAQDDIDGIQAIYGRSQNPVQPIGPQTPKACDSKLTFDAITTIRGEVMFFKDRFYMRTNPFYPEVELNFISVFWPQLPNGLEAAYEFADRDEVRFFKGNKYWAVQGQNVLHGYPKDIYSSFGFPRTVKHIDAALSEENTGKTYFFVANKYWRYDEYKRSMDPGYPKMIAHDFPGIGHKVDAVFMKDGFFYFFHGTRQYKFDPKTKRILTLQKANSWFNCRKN
# [5] = molecular target: Collagenase 3 (Homo sapiens, UniProt P45452); experiment: Inhibition of MMP13
# [6] = molecular target: T3, Stromelysin-1; experiment: Inhibition of MMP3 at 100 uM
# Target sequence in this assay (P08254 100-477 limits assumed): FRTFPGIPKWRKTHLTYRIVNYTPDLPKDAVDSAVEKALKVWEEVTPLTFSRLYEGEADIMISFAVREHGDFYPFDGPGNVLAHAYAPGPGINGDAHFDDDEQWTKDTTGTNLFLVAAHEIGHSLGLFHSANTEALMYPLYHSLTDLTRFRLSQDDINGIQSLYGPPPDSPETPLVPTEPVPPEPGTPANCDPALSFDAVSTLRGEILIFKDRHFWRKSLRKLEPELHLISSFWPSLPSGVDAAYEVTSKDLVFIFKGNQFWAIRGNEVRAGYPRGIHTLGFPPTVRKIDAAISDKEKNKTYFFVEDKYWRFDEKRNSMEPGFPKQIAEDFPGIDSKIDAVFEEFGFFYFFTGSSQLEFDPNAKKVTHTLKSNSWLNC
# [7] = molecular target: T1, 72 kDa type IV collagenase; conditions: 100 uM
# Target sequence in this assay (P08253 110-660 limits assumed): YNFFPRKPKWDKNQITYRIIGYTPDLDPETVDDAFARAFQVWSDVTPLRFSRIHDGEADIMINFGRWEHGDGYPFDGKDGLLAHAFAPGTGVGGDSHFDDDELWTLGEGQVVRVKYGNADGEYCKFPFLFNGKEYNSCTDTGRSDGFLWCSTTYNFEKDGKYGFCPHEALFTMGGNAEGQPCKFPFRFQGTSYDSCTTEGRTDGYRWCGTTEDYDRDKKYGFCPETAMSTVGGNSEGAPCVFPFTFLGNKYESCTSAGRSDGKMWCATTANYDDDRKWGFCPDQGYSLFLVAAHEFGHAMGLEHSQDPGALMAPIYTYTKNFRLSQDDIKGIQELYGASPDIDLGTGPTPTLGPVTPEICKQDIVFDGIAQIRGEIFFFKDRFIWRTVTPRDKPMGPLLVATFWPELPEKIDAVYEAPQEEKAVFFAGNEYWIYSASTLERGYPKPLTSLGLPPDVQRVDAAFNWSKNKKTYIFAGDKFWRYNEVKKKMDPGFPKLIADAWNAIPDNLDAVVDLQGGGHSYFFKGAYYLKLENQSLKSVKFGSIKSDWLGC
# Description: Inhibition of MMP2 at 100 uM
# [8] = molecular target: T2, Matrix metalloproteinase-9; experiment: Inhibition of MMP9 at 100 uM
# [9] = Apparent elimination half life in rat at 2 mg/kg, iv; format: ADME, organism-based; design: dose 2 mg/kg, route intravenous; conditions: in vivo
# [10] = Drug level in rat at 2 mg/kg, iv; format: ADME, organism-based; design: dose 2 mg/kg, route intravenous; conditions: in vivo
# [11] = Plasma concentration in mouse at 10 mg/kg, po after 1 hr
# [12] = system: Mus musculus; experiment: Reduction of focal ischemia-induced brain edema in C57 Black/6 mouse at 6 mg/kg, iv after 2 hrs by wet/dry method; format: functional, organism-based; design: dose 6 mg/kg
# [13] = Volume of distribution at steady state in rat at 2 mg/kg, iv; format: ADME, organism-based; design: dose 2 mg/kg, route intravenous; conditions: in vivo, read-out: Vdss
# [14] = system: Rattus norvegicus; experiment: AUC in rat at 2 mg/kg, iv; format: ADME, organism-based, Plasma; design: dose 2 mg/kg, route intravenous; conditions: in vivo
# T2 sequence (P14780 whole entry): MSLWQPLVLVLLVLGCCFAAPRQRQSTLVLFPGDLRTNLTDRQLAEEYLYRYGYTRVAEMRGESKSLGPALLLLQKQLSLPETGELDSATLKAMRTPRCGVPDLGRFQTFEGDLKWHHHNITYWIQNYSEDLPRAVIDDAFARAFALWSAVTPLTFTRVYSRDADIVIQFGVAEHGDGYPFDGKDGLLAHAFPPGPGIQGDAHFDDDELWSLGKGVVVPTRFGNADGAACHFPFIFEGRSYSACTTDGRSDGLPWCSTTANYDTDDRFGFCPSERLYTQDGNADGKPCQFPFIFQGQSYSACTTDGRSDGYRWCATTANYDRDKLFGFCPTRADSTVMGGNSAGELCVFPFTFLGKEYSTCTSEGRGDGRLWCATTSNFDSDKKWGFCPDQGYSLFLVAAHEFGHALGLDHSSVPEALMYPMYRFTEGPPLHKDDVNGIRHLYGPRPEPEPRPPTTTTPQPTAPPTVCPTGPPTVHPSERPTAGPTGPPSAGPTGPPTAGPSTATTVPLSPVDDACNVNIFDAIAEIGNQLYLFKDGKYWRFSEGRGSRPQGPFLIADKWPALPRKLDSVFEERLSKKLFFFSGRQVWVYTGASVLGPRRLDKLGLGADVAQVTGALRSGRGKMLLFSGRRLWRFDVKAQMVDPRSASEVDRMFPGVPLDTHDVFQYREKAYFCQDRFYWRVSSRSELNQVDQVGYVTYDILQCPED
IC50 [1],IC50 [2],Compound,IC50 [3],IC50 [4],IC50 [5],other results
41 nM,57.5 nM,CC(C)N(c1cccn(O)c1=O)S(=O)(=O)c1ccc(Oc2ccccc2)cc1,,,,
,,COc1ccc(Oc2ccc(S(=O)(=O)N(C)c3cccn(O)c3=O)cc2)cc1,79.1 nM,> 1000 nM,6.8 nM,
,,Cc1cc(=O)c(O)c(C(=O)NCc2ccc(-c3ccccc3)cc2)o1,,,,inhibition [6]: 34%; inhibition [7]: 34%; inhibition [8]: 34%
8.3 nM,5 nM,CN(c1cccn(O)c1=O)S(=O)(=O)c1ccc(Oc2ccccc2)cc1,,,,
,,O=c1c(N(CCN2CCOCC2)S(=O)(=O)c2ccc(Oc3ccc(Cl)cc3)cc2)cccn1O,62.9 nM,> 1000 nM,4 nM,
6.5 nM,3.6 nM,CCN(c1cccn(O)c1=O)S(=O)(=O)c1ccc(Oc2ccccc2)cc1,,,,
,1.8 nM,CN(c1cccn(O)c1=O)S(=O)(=O)c1ccc(Oc2ccc(OC(F)(F)F)cc2)cc1,,,,
6.1 nM,4.4 nM,Cc1ccc(Oc2ccc(S(=O)(=O)N(C)c3cccn(O)c3=O)cc2)cc1,,,,

Compound,IC50 [1],IC50 [2],IC50 [3],IC50 [4],IC50 [5],other results
CN(c1cccn(O)c1=O)S(=O)(=O)c1ccc(Oc2ccc(Cl)cc2)cc1,5 nM,2.4 nM,56.5 nM,> 1000 nM,2.5 nM,half-life [9]: 47 h; C0 [10]: 8.4 µM; concentration at 1 h [11]: 34 µM; Activity [12]: Active; Vd [13]: 1.75 L/kg; AUC [14]: 179 µg·h/mL
